Key:
Assay in all cases: relative viability (nuclei count vs DMSO), 5 days (fraction); higher = more cells survive
NCI-H2009 = tested on: NCI-H2009
How it was run: (§1)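 Dosing by pin tool came one day after lung cancer cell lines were seeded in 1536-well plates, using either one drug or a fixed anchor-drug dose plus five library-drug doses (not always all listed) in √10 steps. After 5 days, nuclei were counted on 4× images. Relative viability is treated-well nuclei count divided by vehicle-well nuclei count, and values are medians of duplicate plates.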

NCI-H1651 = tested on: NCI-H1651
How it was run: as §1

NCI-H647 = tested on: NCI-H647
How it was run: as §1

PC-14 = tested on: PC-14
How it was run: as §1

NCI-H2170 = tested on: NCI-H2170
How it was run: as §1

SK-MES-1 = tested on: SK-MES-1
How it was run: as §1

LXF-289 = tested on: LXF-289
How it was run: as §1

LK-2 = tested on: LK-2
How it was run: as §1

NCI-H2087 = tested on: NCI-H2087
How it was run: as §1

CAL-12T = tested on: CAL-12T
How it was run: as §1

NCI-H1755 = tested on: NCI-H1755
How it was run: as §1

H3255 = tested on: H3255
How it was run: as §1

NCI-H322M = tested on: NCI-H322M
How it was run: as §1

NCI-H596 = tested on: NCI-H596
How it was run: as §1

NCI-H2126 = tested on: NCI-H2126
How it was run: as §1

EMC-BAC-2 = tested on: EMC-BAC-2
How it was run: as §1

201T = tested on: 201T
How it was run: as §1

NCI-H3122 = tested on: NCI-H3122
How it was run: as §1

HOP-62 = tested on: HOP-62
How it was run: as §1

ABC-1 = tested on: ABC-1
How it was run: as §1

NCI-H1734 = tested on: NCI-H1734
How it was run: as §1

O=C(O)CCCCC(CCSCc1ccccc1)SCc1ccccc1 (stereo not given) [CPI-613] + CS(=O)(=O)CCNCc1ccc(-c2ccc3ncnc(Nc4ccc(OCc5cccc(F)c5)c(Cl)c4)c3c2)o1 [Lapatinib] (partner 2 µM)
relative viability (NCI-H2009; first compound 5 µM): 0.996 | relative viability (NCI-H2009; first compound 15.81 µM): 0.897 | relative viability (NCI-H2009; first compound 50 µM): 0.771 | relative viability (NCI-H2009; first compound 158.11 µM): 0.18 | relative viability (NCI-H2009; first compound 500 µM): 0.0119 | relative viability (NCI-H1651; first compound 5 µM): 0.732 | relative viability (NCI-H1651; first compound 15.81 µM): 0.71 | relative viability (NCI-H1651; first compound 50 µM): 0.781 | relative viability (NCI-H1651; first compound 158.11 µM): 0.312 | relative viability (NCI-H1651; first compound 500 µM): 0.0775 | relative viability (NCI-H647; first compound 5 µM): 0.962 | relative viability (NCI-H647; first compound 15.81 µM): 0.698 | relative viability (NCI-H647; first compound 50 µM): 0.757 | relative viability (NCI-H647; first compound 158.11 µM): 0.27 | relative viability (NCI-H647; first compound 500 µM): 0.0102 | relative viability (PC-14; first compound 5 µM): 0.347 | relative viability (PC-14; first compound 15.81 µM): 0.307 | relative viability (PC-14; first compound 50 µM): 0.303 | relative viability (PC-14; first compound 158.11 µM): 0.251 | relative viability (PC-14; first compound 500 µM): 0.259 | relative viability (NCI-H2170; first compound 5 µM): 0.259 | relative viability (NCI-H2170; first compound 15.81 µM): 0.273 | relative viability (NCI-H2170; first compound 50 µM): 0.249 | relative viability (NCI-H2170; first compound 158.11 µM): 0.261 | relative viability (NCI-H2170; first compound 500 µM): 0.188 | relative viability (SK-MES-1; first compound 5 µM): 0.458 | relative viability (SK-MES-1; first compound 15.81 µM): 0.399 | relative viability (SK-MES-1; first compound 50 µM): 0.428 | relative viability (SK-MES-1; first compound 158.11 µM): 0.408 | relative viability (SK-MES-1; first compound 500 µM): 0.458 | relative viability (LXF-289; first compound 5 µM): 0.842 | relative viability (LXF-289; first compound 15.81 µM): 0.881 | relative viability (LXF-289; first compound 50 µM): 0.835 | relative viability (LXF-289; first compound 158.11 µM): 0.585 | relative viability (LXF-289; first compound 500 µM): 0.0115 | relative viability (LK-2; first compound 5 µM): 0.967 | relative viability (LK-2; first compound 15.81 µM): 0.864 | relative viability (LK-2; first compound 50 µM): 0.876 | relative viability (LK-2; first compound 158.11 µM): 0.905 | relative viability (LK-2; first compound 500 µM): 0.853 | relative viability (NCI-H2087; first compound 5 µM): 1.06 | relative viability (NCI-H2087; first compound 15.81 µM): 0.934 | relative viability (NCI-H2087; first compound 50 µM): 0.72 | relative viability (NCI-H2087; first compound 158.11 µM): 0.525 | relative viability (NCI-H2087; first compound 500 µM): 0.012 | relative viability (CAL-12T; first compound 5 µM): 0.605 | relative viability (CAL-12T; first compound 15.81 µM): 0.532 | relative viability (CAL-12T; first compound 50 µM): 0.603 | relative viability (CAL-12T; first compound 158.11 µM): 0.551 | relative viability (CAL-12T; first compound 500 µM): 0.56 | relative viability (NCI-H1755; first compound 5 µM): 0.997 | relative viability (NCI-H1755; first compound 15.81 µM): 0.996 | relative viability (NCI-H1755; first compound 50 µM): 1 | relative viability (NCI-H1755; first compound 158.11 µM): 0.969 | relative viability (NCI-H1755; first compound 500 µM): 0.232 | relative viability (H3255; first compound 5 µM): 0.234 | relative viability (H3255; first compound 15.81 µM): 0.253 | relative viability (H3255; first compound 50 µM): 0.291 | relative viability (H3255; first compound 158.11 µM): 0.256 | relative viability (H3255; first compound 500 µM): 0.25 | relative viability (NCI-H322M; first compound 5 µM): 0.577 | relative viability (NCI-H322M; first compound 15.81 µM): 0.485 | relative viability (NCI-H322M; first compound 50 µM): 0.572 | relative viability (NCI-H322M; first compound 158.11 µM): 0.552 | relative viability (NCI-H322M; first compound 500 µM): 0.707 | relative viability (NCI-H596; first compound 5 µM): 1.01 | relative viability (NCI-H596; first compound 15.81 µM): 1.05 | relative viability (NCI-H596; first compound 50 µM): 1.02 | relative viability (NCI-H596; first compound 158.11 µM): 1.05 | relative viability (NCI-H596; first compound 500 µM): 0.0407 | relative viability (NCI-H2126; first compound 5 µM): 0.723 | relative viability (NCI-H2126; first compound 15.81 µM): 0.754 | relative viability (NCI-H2126; first compound 50 µM): 0.758 | relative viability (NCI-H2126; first compound 158.11 µM): 0.612 | relative viability (NCI-H2126; first compound 500 µM): 0.738 | relative viability (EMC-BAC-2; first compound 5 µM): 0.827 | relative viability (EMC-BAC-2; first compound 15.81 µM): 0.86 | relative viability (EMC-BAC-2; first compound 50 µM): 0.847 | relative viability (EMC-BAC-2; first compound 158.11 µM): 0.954 | relative viability (EMC-BAC-2; first compound 500 µM): 0.0887 | relative viability (201T; first compound 5 µM): 1.09 | relative viability (201T; first compound 15.81 µM): 0.958 | relative viability (201T; first compound 50 µM): 0.953 | relative viability (201T; first compound 158.11 µM): 0.978 | relative viability (201T; first compound 500 µM): 0.972 | relative viability (NCI-H3122; first compound 5 µM): 1.02 | relative viability (NCI-H3122; first compound 15.81 µM): 0.971 | relative viability (NCI-H3122; first compound 50 µM): 0.994 | relative viability (NCI-H3122; first compound 158.11 µM): 0.856 | relative viability (NCI-H3122; first compound 500 µM): 0.0332 | relative viability (HOP-62; first compound 5 µM): 1.06 | relative viability (HOP-62; first compound 15.81 µM): 0.855 | relative viability (HOP-62; first compound 50 µM): 0.935 | relative viability (HOP-62; first compound 158.11 µM): 0.804 | relative viability (HOP-62; first compound 500 µM): 0.107 | relative viability (ABC-1; first compound 5 µM): 1 | relative viability (ABC-1; first compound 15.81 µM): 0.948 | relative viability (ABC-1; first compound 50 µM): 1.33 | relative viability (ABC-1; first compound 158.11 µM): 1.27 | relative viability (ABC-1; first compound 500 µM): 1.57 | relative viability (NCI-H1734; first compound 5 µM): 0.939 | relative viability (NCI-H1734; first compound 15.81 µM): 0.686 | relative viability (NCI-H1734; first compound 50 µM): 1 | relative viability (NCI-H1734; first compound 158.11 µM): 0.349 | relative viability (NCI-H1734; first compound 500 µM): 0.116
